Like-named read-outs stand apart in the source and are kept apart here.
Experiments:
[1] = system: P. falciparum K1 strain; experiment: In vitro antiplasmodium activity, 3H-hypoxanthine incorporation assay; format: cell-based, Plasmodium falciparum; settings: for IC50: read-out: P. falciparum K1 IC50; for Selectivity Indices (SI) [(IC50 L6 Cell Line)/(IC50 K1 strain)]: L6 vs K1
Procedure: (§1) Antiplasmodial activity on the K1 strain, antitrypanosomal activity on T. b. brucei rhodesiense STIB900 and cytotoxicity on the L6 mammalian cell-line were all carried out at the Swiss Tropical and Public Health Institute (STPH), Switzerland as follows:
In vitro activity against erythrocytic stages of P. falciparum was determined using a ^3H-hypoxanthine incorporation assay, using the chloroquine and pyrimethamine-resistant K1 strain that originates from Thailand and the standard drug chloroquine (Sigma C6628). Compounds were dissolved in DMSO at 10 mg/mL and added to parasite cultures incubated in RPMI 1640 medium without hypoxanthine, supplemented with HEPES (5.94 g/L), NaHCO3 (2.1 g/L), neomycin (100 U/mL), Albumax^R (5 g/L) and washed human red cells A^+ at 2.5% hematocrit (0.3% parasitemia). Serial drug dilutions of eleven three-fold dilution steps covering a range from 100 to 0.002 μg/mL were prepared. The 96-well plates were incubated in a humidified atmosphere at 37 °C; 4% CO2, 3% O2, 93% N2. After 48 h, 50 μL of ^3H-hypoxanthine (= 0.5 μCi) was added to each well of the plate. The test compounds were tested in triplicate ad parasite growth compared to control or blank well. The plates were incubated for a further 24 h under the same conditions. The plates were then harvested with a Betaplate™ cell harvester (Wallac, Zurich, Switzerland), and the red blood cells transferred onto a glass fiber filter then washed with distilled water. The dried filters were inserted into a plastic foil with 10 mL of scintillation fluid and counted in a Betaplate™ liquid scintillation counter (Wallac, Zurich, Switzerland). IC50 values were calculated from sigmoidal inhibition curves by linear regression using Microsoft Excel.

[2] = system: Trypanosoma brucei rhodesiense STIB900; experiment: In vitro antitrypanosomal activity, alamarBlue assay; format: cell-based; settings: STIB900 bloodstream forms, 70 h + 2-4 h alamarBlue, read-out: T. b. brucie T. b. rhod IC50
Procedure: as §1
This stock was isolated in 1982 from a human patient in Tanzania and, after several mouse passages, was cloned and adapted to axenic culture conditions. Minimum essential medium (50 µL) supplemented with 25 mM HEPES, 1 g/L additional glucose, 1% MEM non-essential amino acids (100×), 0.2 mM 2-mercaptoethanol, 1 mM Na-pyruvate and 15% heat-inactivated horse serum was added to each well of a 96-well microtiter plate. Serial drug dilutions of eleven three-fold dilution steps covering a range from 100 to 0.002 μg/mL were prepared. Then, 4 × 10^3 bloodstream forms of T. b. rhodesiense STIB 900 in 50 µL was added to each well and the plate incubated at 37 °C under a 5% CO2 atmosphere for 70 h. 10 µL alamarBlue (resazurin, 12.5 mg in 100 mL double-distilled water) was then added to each well and incubation continued for a further 2–4 h. Then the plates were read with a Spectramax Gemini XS microplate fluorometer (Molecular Devices Cooperation, Sunnyvale, CA, USA) using an excitation wavelength of 536 nm and an emission wavelength of 588 nm. The test compounds were tested in triplicate, and their IC50 values were calculated by linear regression from the sigmoidal dose inhibition curves using Softmax Pro software (Molecular Devices Cooperation, Sunnyvale, CA, USA).

[3] = Aqueous kinetic solubility; format: physicochemical
Procedure: A 10 mM stock of the compound was diluted in DMSO to give standard solutions at 220 µM, 100 µM and 10 µM in a 96 well plate as described previously. The 10 mM stock was then spiked 1:50 in phosphate-buffered saline pH 7.0 to give a final DMSO concentration of 2%. Both the standard and sample solutions were plated in triplicate. After shaking for 2 h at 25 °C, the solutions were filtered and analyzed on an Agilent 1200 series HPLC with DAD detection. The solubility of the test compounds was determined by comparing the peak area of the sample solutions to that of the standard solutions.

[4] = In vitro cytotoxicity with L-6 cells, alamarBlue assay; format: cell-based; settings: rat, L6 cells, 70 h + 2 h alamarBlue, read-out: Cytotoxicity L6 Cell Lines IC50
Procedure: as §1
Assays were performed in triplicate in 96-well microtiter plates, each well containing 100 μL of RPMI 1640 medium supplemented with 1% L-glutamine (200 mM) and 10% fetal bovine serum, and 4000 L-6 cells (a primary cell line derived from rat skeletal myoblasts). Serial drug dilutions of eleven three-fold dilution steps covering a range from 100 to 0.002 μg/mL were prepared. After 70 h of incubation, the plates were inspected under an inverted microscope to assure the growth of the controls and sterile conditions. 10 μL of alamarBlue was then added to each well, and the plates incubated for another 2 h. Then the plates were read with a Spectramax Gemini XS microplate fluorometer (Molecular Devices Cooperation, Sunnyvale, CA, USA) using an excitation wavelength of 536 nm and an emission wavelength of 588 nm. The IC50 values were calculated by linear regression from the sigmoidal dose inhibition curves using Softmax Pro software (Molecular Devices Cooperation, Sunnyvale, CA, USA).

[5] = multidrug-resistant (chloroquine and pyrimethamine-resistant) K1 strain, erythrocytic stages, 72 h
[6] = Plasmodium falciparum, K1, 72 h
[7] = Plasmodium falciparum, multidrug-resistant (chloroquine and pyrimethamine-resistant) K1 strain, erythrocytic stages, 72 h
[8] = L-6 cells (rat skeletal myoblasts)
[9] = aqueous buffer, kinetic from dmso stock, phosphate-buffered saline pH 7.0, 2% DMSO, 2 h at 25 °C

Compound | IC50 [1, 5] | IC50 [2] | Selectivity Indices (SI) [(IC50 L6 Cell Line)/(IC50 K1 strain)] [1] | IC50 [1, 7] | IC50 ([2]; Trypanosoma brucei) | IC50 at 72 h [4, 8] | other results
1-[2-(7-Chloroquinolin-4-ylamino)ethyl]-3-methoxy-4-(4-methoxyphenyl)azetidin-2-one [Compound 4b] | 0.62 µM | 52.9 µM |  |  |  |  | 
1-[2-(7-Chloroquinolin-4-ylamino)ethyl]-3-methoxy-4-p-tolylazetidin-2-one [Compound 4c] | 0.58 µM | 52.5 µM |  |  |  |  | 
1-[2-(7-Chloroquinolin-4-ylamino)ethyl]-4-(4-chlorophenyl)-3-methoxyazetidin-2-one [Compound 4e] | 0.3 µM | 7.01 µM |  |  |  |  | solubility kinetic at 2 h ([3]; pH 7): >200 µM
CCN(CC)CCCC(C)Nc1ccnc2cc(Cl)ccc12 (stereo not shown) [Chloroquine, reference compound] |  |  |  |  |  |  | IC50 [1, 6]: 0.22 µM
COC1C(=O)N(CCNc2ccnc3cc(Cl)ccc23)C1c1ccccc1 (stereo not shown) [Compound 4a, 1-[2-(7-Chloroquinolin-4-ylamino)ethyl]-3-methoxy-4-phenylazetidin-2-one] |  |  | 211 | 0.47 µM | 53.2 µM | 98.5 µM | solubility kinetic at 2 h [3, 9]: > 200 µM
COC1C(=O)N(CCNc2ccnc3cc(Cl)ccc23)C1c1ccc(Cl)c(Cl)c1 (stereo not shown) [Compound 4d, 1-[2-(7-Chloroquinolin-4-ylamino)ethyl]-4-(3,4-dichlorophenyl)-3-methoxyazetidin-2-one] |  |  | 43 | 0.2 µM | 19 µM | 8.54 µM | 
COC1C(=O)N(CCCNc2ccnc3cc(Cl)ccc23)C1c1ccccc1 (stereo not shown) [Compound 4f, 1-[3-(7-Chloroquinolin-4-ylamino)propyl]-3-methoxy-4-phenylazetidin-2-one] |  |  | 25 | 0.57 µM | 16.1 µM | 14.4 µM | 
COC1C(=O)N(CCCCNc2ccnc3cc(Cl)ccc23)C1c1ccccc1 (stereo not shown) [Compound 4g, 1-[4-(7-Chloroquinolin-4-ylamino)butyl]-3-methoxy-4-phenylazetidin-2-one] |  |  | 9 | 0.31 µM | 20 µM | 2.87 µM | solubility kinetic at 2 h [3, 9]: > 200 µM
COc1cccc(C(NCCCC(C)Nc2cc(OC)cc3cccnc23)c2nnnn2C(C)(C)C)c1 (stereo not shown) [Compound 6b] |  |  | 38 | 1.98 µM | 14.2 µM | 75.5 µM | 
COc1cc([C@@H]2c3cc4c(cc3[C@H](O)[C@H]3COC(=O)[C@H]23)OCO4)cc(OC)c1OC [Podophyllotoxin, reference compound] |  |  |  |  |  |  | IC50 at 72 h [4]: 0.0193 µM
COc1cc(NC(C)CCCN)c2ncccc2c1 (stereo not shown) [Primaquine, reference compound] |  |  |  |  |  |  | IC50 [1, 6]: 0.64 µM
N-{5-[(1-tert-butyl-1H-tetrazol-5-yl)(3,4-dichlorophenyl)methylamino]pentan-2-yl}-6-methoxyquinolin-8-amine [Compound 6d] | 1.31 µM | 18.3 µM |  |  |  |  | solubility kinetic at 2 h ([3]; pH 7): <5 µM
N-{5-[(1-tert-butyl-1H-tetrazol-5-yl)(4-chlorophenyl)methylamino]pentan-2-yl}-6-methoxyquinolin-8-amine [Compound 6e] | 1.8 µM | 21.4 µM |  |  |  |  | solubility kinetic at 2 h ([3]; pH 7): <15 µM
N-{5-[(1-tert-butyl-1H-tetrazol-5-yl)(p-tolyl)methylamino]pentan-2-yl}-6-methoxyquinolin-8-amine [Compound 6c] | 1.57 µM | 18.5 µM |  |  |  |  | solubility kinetic at 2 h ([3]; pH 7): <5 µM
N-{5-[(1-tert-butyl-1H-tetrazol-5-yl)(phenyl)methylamino]pentan-2-yl}-6-methoxyquinolin-8-amine [Compound 6a] | 2.47 µM | 18.1 µM |  |  |  |  | 
